# Source: ChEMBL document CHEMBL1697692, “Developing structure-activity relationships for the prediction of hepatotoxicity” (Chem Res Toxicol, 2010)
# Numbered stars: 1 amine (or outer) side, 2 acyl side, 3 side chain; on linkers, the order of the positions; unused ones are H or OH. Bridge positions count the residues as written; N and C are the ends. Square brackets hold non-standard residues; d marks the D form. Peptide text beside a SMILES is read from it. * marks the point of attachment. ξ: configuration not given here. Ileψ(thiazoline)Cys = CC[C@H](C)[C@H](N)C1=N[C@H](C(=O)*)CS1; X1 = N=C1NCCC([C@H](N[*:1])C(=O)[*:2])N1; ΔAla(Z-3-ureido) = NC(=O)N/C=C(\N)C(=O)O; dOrn = NCCC[C@@H](N)C(=O)O; ξβ3hOrn = NCCCC(N)CC(=O)*; Dap = NC[C@H](N)C(=O)O
# System: Hepatotoxicity
# Assay: Literature-mined public compounds from Greene et al multi-species hepatotoxicity modelling dataset
row,SMILES,Hepatotoxicity
1,Clc1ccc2c(c1)C(N1CCNCC1)=Nc1ccccc1O2 [AMOXAPINE],WE: Weak evidence (<10 case reports) of human hepatotoxicity
2,CC1(C)S[C@@H]2[C@H](NC(=O)[C@H](N)c3ccc(O)cc3)C(=O)N2[C@H]1C(=O)O [AMOXICILLIN],WE: Weak evidence (<10 case reports) of human hepatotoxicity
3,C[C@@H]1[C@H](O)[C@@H](C)/C=C/C=C/C=C/C=C/C=C/C=C/C=C/[C@H](O[C@@H]2O[C@H](C)[C@@H](O)[C@H](N)[C@@H]2O)C[C@@H]2O[C@](O)(C[C@@H](O)C[C@@H](O)[C@H](O)CC[C@@H](O)C[C@@H](O)CC(=O)O[C@H]1C)C[C@H](O)[C@H]2C(=O)O [AMPHOTERICIN B],WE: Weak evidence (<10 case reports) of human hepatotoxicity
4,COc1cc(NS(C)(=O)=O)ccc1Nc1c2ccccc2nc2ccccc12.Cl [AMSACRINE HYDROCHLORIDE],HH: Evidence of human hepatotoxicity
5,CCOC(=O)C1(c2ccccc2)CCN(CCc2ccc(N)cc2)CC1.Cl [ANILERIDINE HYDROCHLORIDE],NE: No evidence of hepatotoxicity in any species
6,N=C(N)NCCC[C@H](N)C(=O)O [ARGININE],NE: No evidence of hepatotoxicity in any species
7,O=[As][As+](=O)[O-] (stereo not given) [ARSENIC TRIOXIDE],HH: Evidence of human hepatotoxicity
8,O=C1O[C@H]([C@@H](O)CO)C(O)=C1O [ASCORBIC ACID],NE: No evidence of hepatotoxicity in any species
9,COc1ccc(CCN2CCC(Nc3nc4ccccc4n3Cc3ccc(F)cc3)CC2)cc1 [ASTEMIZOLE],NE: No evidence of hepatotoxicity in any species
10,CC(C)NCC(O)COc1ccc(CC(N)=O)cc1 (stereo not given) [ATENOLOL],NE: No evidence of hepatotoxicity in any species
11,CNCC[C@@H](Oc1ccccc1C)c1ccccc1 [ATOMOXETINE],HH: Evidence of human hepatotoxicity
12,C=C1[C@@H]2CCC3[C@@](CC[C@@H]4[C@H](C(=O)O)C[C@@H](O[C@@H]5O[C@H](CO)[C@@H](OS(=O)(=O)[O-])[C@H](OS(=O)(=O)[O-])[C@H]5OC(=O)CC(C)C)C[C@@]34C)(C2)[C@@H]1O.[K+].[K+] (stereo not given in full) [ATRACTYLOSIDE],HH: Evidence of human hepatotoxicity
13,Nc1ncn([C@@H]2O[C@H](CO)[C@@H](O)[C@H]2O)c(=O)n1 [AZACITIDINE],HH: Evidence of human hepatotoxicity
14,Cl.Cl.O=C(CCN1CCN2CCCC2C1)N1c2ccccc2Sc2ccc(Cl)cc21 (stereo not given) [AZACLORZINE HYDROCHLORIDE],HH: Evidence of human hepatotoxicity
15,[N-]=[N+]=CC(=O)OC[C@H](N)C(=O)O [AZASERINE],AH: Evidence for animal hepatotoxicity but not tested in humans
16,CN1CCC(=C2c3ccccc3CCc3cccnc32)CC1.O=C(O)/C=C\C(=O)O.O=C(O)/C=C\C(=O)O [AZATADINE MALEATE],HH: Evidence of human hepatotoxicity
17,Cn1cnc([N+](=O)[O-])c1Sc1ncnc2nc[nH]c12 [AZATHIOPRINE],HH: Evidence of human hepatotoxicity
18,CC[C@H]1OC(=O)[C@H](C)[C@@H](O[C@H]2C[C@@](C)(OC)[C@@H](O)[C@H](C)O2)[C@H](C)[C@@H](O[C@@H]2O[C@H](C)C[C@H](N(C)C)[C@H]2O)[C@](C)(O)C[C@@H](C)CN(C)[C@H](C)[C@@H](O)[C@]1(C)O [AZITHROMYCIN],WE: Weak evidence (<10 case reports) of human hepatotoxicity
19,CC1(C)S[C@@H]2[C@H](NC(=O)[C@H](NC(=O)N3CCNC3=O)c3ccccc3)C(=O)N2[C@H]1C(=O)[O-].[Na+] [AZLOCILLIN SODIUM],NE: No evidence of hepatotoxicity in any species
20,C[C@H]1[C@H](NC(=O)/C(=N\OC(C)(C)C(=O)O)c2csc(N)n2)C(=O)N1S(=O)(=O)O [AZTREONAM],NE: No evidence of hepatotoxicity in any species
21,CC[C@H](C)[C@H](N)C1=N[C@H](C(=O)N[C@@H](CC(C)C)C(=O)N[C@H](CCC(=O)O)C(=O)N[C@H](C(=O)N[C@H]2CCCCNC(=O)[C@H](CC(N)=O)NC(=O)[C@@H](CC(=O)O)NC(=O)[C@H](Cc3cnc[nH]3)NC(=O)[C@@H](Cc3ccccc3)NC(=O)[C@H]([C@@H](C)CC)NC(=O)[C@@H](CCCN)NC2=O)[C@@H](C)CC)CS1 [BACITRACIN] ({Ileψ(thiazoline)Cys}-L[dE]IK[dOrn]I[dF]H[dD]N; lactam 4-C),NE: No evidence of hepatotoxicity in any species
22,CN(C)C(=O)Oc1cc(OC(=O)N(C)C)cc(C(O)CNC(C)(C)C)c1 (stereo not given) [BAMBUTEROL],NE: No evidence of hepatotoxicity in any species
23,CCC(=O)OCC(=O)[C@@]1(OC(=O)CC)[C@@H](C)C[C@H]2[C@@H]3CCC4=CC(=O)C=C[C@]4(C)[C@@]3(Cl)[C@@H](O)C[C@@]21C [BECLOMETHASONE DIPROPIONATE],NE: No evidence of hepatotoxicity in any species
24,CCOC(=O)[C@H](CCc1ccccc1)N[C@H]1CCc2ccccc2N(CC(=O)O)C1=O [BENAZEPRIL],WE: Weak evidence (<10 case reports) of human hepatotoxicity
25,CC(C(=O)O)c1ccc2oc(-c3ccc(Cl)cc3)nc2c1 (stereo not given) [BENOXAPROFEN],HH: Evidence of human hepatotoxicity
26,CCc1oc2ccccc2c1C(=O)c1cc(Br)c(O)c(Br)c1 [BENZBROMARONE],HH: Evidence of human hepatotoxicity
27,CC(C)COCC(CN(Cc1ccccc1)c1ccccc1)N1CCCC1.Cl.O (stereo not given) [BEPRIDIL HYDROCHLORIDE],HH: Evidence of human hepatotoxicity
28,CNCCc1ccccn1.Cl.Cl [BETAHISTINE HYDROCHLORIDE],HH: Evidence of human hepatotoxicity

row,SMILES,Hepatotoxicity
1,C[N+](C)(C)CC(=O)O.[Cl-] [BETAINE HYDROCHLORIDE],NE: No evidence of hepatotoxicity in any species
2,C[C@H]1C[C@H]2[C@@H]3CCC4=CC(=O)C=C[C@]4(C)[C@@]3(F)[C@@H](O)C[C@]2(C)[C@@]1(O)C(=O)CO [BETAMETHASONE],NE: No evidence of hepatotoxicity in any species
3,CC(C)(Oc1ccc(CCNC(=O)c2ccc(Cl)cc2)cc1)C(=O)O [BEZAFIBRATE],NE: No evidence of hepatotoxicity in any species
4,CC(O)(CS(=O)(=O)c1ccc(F)cc1)C(=O)Nc1ccc(C#N)c(C(F)(F)F)c1 (stereo not given) [BICALUTAMIDE],HH: Evidence of human hepatotoxicity
5,O=C(O)CCCC[C@@H]1SC[C@@H]2NC(=O)N[C@@H]21 [BIOTIN],NE: No evidence of hepatotoxicity in any species
6,CCCC[C@@H](CC)COC(=O)c1ccccc1C(=O)OC[C@@H](CC)CCCC [BIS(2-ETHYLHEXYL)PHTHALATE],AH: Evidence for animal hepatotoxicity but not tested in humans
7,Oc1c(Cl)cc(Cl)cc1Sc1cc(Cl)cc(Cl)c1O [BITHIONOL],HH: Evidence of human hepatotoxicity
8,COc1ccccc1Oc1c(NS(=O)(=O)c2ccc(C(C)(C)C)cc2)nc(-c2ncccn2)nc1OCCO [BOSENTAN],HH: Evidence of human hepatotoxicity
9,Nc1c(CC(=O)O)cccc1C(=O)c1ccc(Br)cc1 [BROMFENAC],HH: Evidence of human hepatotoxicity
10,Brc1ccccc1 [BROMOBENZENE],HH: Evidence of human hepatotoxicity
11,NCCBr [BROMOETHANAMINE],AH: Evidence for animal hepatotoxicity but not tested in humans
12,CN(C)CCC(c1ccc(Br)cc1)c1ccccn1.O=C(O)/C=C\C(=O)O (stereo not given) [BROMPHENIRAMINE MALEATE],NE: No evidence of hepatotoxicity in any species
13,CCCCNc1cc(C(=O)O)cc(S(N)(=O)=O)c1Oc1ccccc1 [BUMETANIDE],HH: Evidence of human hepatotoxicity
14,CCCCN1CCCCC1C(=O)Nc1c(C)cccc1C (stereo not given) [BUPIVACAINE],NE: No evidence of hepatotoxicity in any species
15,CC(NC(C)(C)C)C(=O)c1cccc(Cl)c1.Cl (stereo not given) [BUPROPION HYDROCHLORIDE],WE: Weak evidence (<10 case reports) of human hepatotoxicity
16,O=C1CC2(CCCC2)CC(=O)N1CCCCN1CCN(c2ncccn2)CC1 [BUSPIRONE],NE: No evidence of hepatotoxicity in any species
17,CS(=O)(=O)OCCCCOS(C)(=O)=O [BUSULFAN],HH: Evidence of human hepatotoxicity
18,Clc1ccc(CCC(Cn2ccnc2)Sc2c(Cl)cccc2Cl)cc1.O=[N+]([O-])O (stereo not given) [BUTOCONAZOLE NITRATE],NE: No evidence of hepatotoxicity in any species
19,Cc1cc(C(C)(C)C)c(O)c(C(C)(C)C)c1 [BUTYLATED HYDROXYTOLUENE],AH: Evidence for animal hepatotoxicity but not tested in humans
20,Cn1c(=O)c2c(ncn2C)n(C)c1=O [CAFFEINE],NE: No evidence of hepatotoxicity in any species
21,C=C1CC[C@H](O)C/C1=C/C=C1\CCC[C@]2(C)[C@@H]([C@H](C)CCCC(C)(C)O)CC[C@@H]12.O [CALCIFEDIOL],HH: Evidence of human hepatotoxicity
22,CC(C)(CO)[C@@H](O)C(=O)NCCC(=O)[O-].CC(C)(CO)[C@@H](O)C(=O)NCCC(=O)[O-].[Ca+2] [CALCIUM PANTOTHENATE],NE: No evidence of hepatotoxicity in any species
23,C[C@@H]1NC(=O)[C@@H](N)CNC(=O)[C@H](C2CCNC(=N)N2)NC(=O)/C(=C/NC(N)=O)NC(=O)[C@H](CNC(=O)CC(N)CCCN)NC1=O.N=C1NCCC([C@@H]2NC(=O)/C(=C/NC(N)=O)NC(=O)[C@H](CNC(=O)CC(N)CCCN)NC(=O)[C@H](CO)NC(=O)[C@@H](N)CNC2=O)N1.O=S(=O)(O)O.O=S(=O)(O)O (stereo partly drawn) [CAPREOMYCIN SULFATE] (H-[Dap]S[Dap](ξβ3hOrn)[ΔAla(Z-3-ureido)][X1]; lactam 1-C),NE: No evidence of hepatotoxicity in any species
24,COc1cc(CNC(=O)CCCC/C=C/C(C)C)ccc1O [CAPSAICIN],NE: No evidence of hepatotoxicity in any species
25,C[C@H](CS)C(=O)N1CCC[C@H]1C(=O)O [CAPTOPRIL],HH: Evidence of human hepatotoxicity
26,NC(=O)N1c2ccccc2C=Cc2ccccc21 [CARBAMAZEPINE],HH: Evidence of human hepatotoxicity
27,COC(=O)Nc1nc2ccccc2[nH]1 [CARBENDAZIM],AH: Evidence for animal hepatotoxicity but not tested in humans
